According to DBAASP:
Converted amounts (≈) assume the structure as drawn. Blank lines part the entries; values can stand above or below the compound they belong to.

What was measured:
Assay in all cases: ≥ marks a high value that may be exact or a test limit, other limits are often not marked, values filed in µg/mL are converted to µM
[1] = test system: Aeromonas salmonicida CIP 103209T
[2] = test system: Enterococcus faecalis CIP 76.117
[3] = test system: Escherichia coli CIP 54.8T
[4] = test system: Listeria monocytogenes CIP 110871
[5] = test system: Staphylococcus aureus CIP 53.156
[6] = test system: Vibrio vulnificus CIP 109783
[7] = test system: Escherichia coli ATCC 25922
[8] = test system: Escherichia coli BNCC 133264
[9] = test system: Escherichia coli
[10] = test system: Klebsiella pneumoniae
[11] = test system: Listeria monocytogenes
[12] = test system: Pseudomonas aeruginosa ATCC 27853
[13] = test system: Pseudomonas aeruginosa BNCC 125486
[14] = test system: Staphylococcus aureus ATCC 25923
[15] = test system: Staphylococcus aureus BNCC 186335
[16] = test system: Bacillus cereus ATCC 10876
[17] = test system: Enterococcus faecalis ATCC 29212
[18] = test system: Salmonella enterica subsp. enterica serovar Typhimurium ATCC 14028
[19] = test system: Staphylococcus aureus ATCC 29213
[20] = test system: Staphylococcus aureus ATCC 6538
[21] = test system: Streptococcus agalactiae ATCC 27956
[22] = test system: Streptococcus dysgalactiae subsp. dysgalactiae ATCC 27957
[23] = test system: Streptococcus equi subsp. zooepidemicus ATCC 43079
[24] = test system: Streptococcus iniae KCTC 3657
[25] = test system: Staphylococcus aureus
[26] = test system: Streptococcus sanguinis

MIC [1]: 7.07 µM (≈ 17 µg/mL)
MIC [2]: 15.8 µM (≈ 38.1 µg/mL)
MIC [3]: 15.8 µM (≈ 38.1 µg/mL)
MIC [4]: 15.8 µM (≈ 38.1 µg/mL)
MIC [5]: 7.07 µM (≈ 17 µg/mL)
MIC [6]: ≥ 35.4 µM
Compound: CC[C@H](C)[C@H](NC(=O)[C@H](CC(C)C)NC(=O)[C@H](CC(=O)O)NC(=O)[C@H](Cc1cnc[nH]1)NC(=O)[C@@H](NC(=O)[C@H](CO)NC(=O)[C@H](CCCCN)NC(=O)CNC(=O)[C@@H](NC(=O)[C@H](Cc1cnc[nH]1)NC(=O)[C@H](Cc1ccccc1)NC(=O)[C@H](CC(C)C)NC(=O)CNC(=O)CNC(=O)[C@@H](NC(=O)[C@@H](NC(=O)[C@H](Cc1cnc[nH]1)NC(=O)[C@H](Cc1cnc[nH]1)NC(=O)[C@@H](NC(=O)[C@@H](N)Cc1ccccc1)[C@@H](C)CC)[C@@H](C)CC)[C@@H](C)CC)C(C)C)[C@@H](C)CC)C(=O)N[C@@H](CCCN=C(N)N)C(=O)O [FIHHIIGGLFHVGKSIHDLIR]

MIC [7]: 1.5 µM (≈ 3.16 µg/mL)
MIC [8]: 1.9 µM (≈ 4 µg/mL)
MIC [9]: 1.9 µM (≈ 4 µg/mL)
MIC [10]: 6.25 µM (≈ 13.2 µg/mL)
MIC [11]: 1.9 µM (≈ 4 µg/mL)
MIC [12]: 1.5 µM (≈ 3.16 µg/mL)
MIC [13]: 1.9 µM (≈ 4 µg/mL)
MIC [14]: 3 µM (≈ 6.32 µg/mL)
MIC [15]: 0.949 µM (≈ 2 µg/mL)
Compound: CC[C@H](C)[C@H](NC(=O)[C@H](CCCCN)NC(=O)[C@H](CC(N)=O)NC(=O)[C@H](CC(C)C)NC(=O)[C@@H](NC(=O)[C@H](CCCCN)NC(=O)[C@@H]1CCCN1)[C@@H](C)CC)C(=O)N[C@@H](CC(C)C)C(=O)NCC(=O)N[C@@H](CCCCN)C(=O)N[C@H](C(=O)N[C@@H](CC(C)C)C(=O)N[C@@H](CCCN=C(N)N)C(=O)N[C@@H](CC(C)C)C(=O)N[C@@H](C)C(=O)N[C@@H](C)C(=O)N[C@@H](C)C(=O)N[C@@H](Cc1ccccc1)C(=O)N[C@@H](CCCCN)C(N)=O)[C@@H](C)CC [PKILNKILGKILRLAAAFK]

MIC [16]: 3.28 µM (≈ 10 µg/mL)
MIC [17]: 13.1 µM (≈ 40 µg/mL)
MIC [7]: 0.328 µM (≈ 1 µg/mL)
MIC [9]: 1.54 µM (≈ 4.7 µg/mL)
MIC [10]: 0.387 µM (≈ 1.18 µg/mL)
MIC [12]: 0.983 µM (≈ 3 µg/mL)
MIC [18]: 0.164 µM (≈ 0.5 µg/mL)
MIC [19]: > 41.9 µM
MIC [20]: 1.3 µM (≈ 3.97 µg/mL)
MIC [21]: 13.1 µM (≈ 40 µg/mL)
MIC [22]: 13.1 µM (≈ 40 µg/mL)
MIC [23]: 6.6 µM (≈ 20.1 µg/mL)
MIC [24]: 10.5 µM (≈ 32 µg/mL)
Compound: CC[C@H](C)[C@H](NC(=O)[C@H](CCCN=C(N)N)NC(=O)[C@H](Cc1c[nH]c2ccccc12)NC(=O)CNC(=O)[C@H](Cc1ccc(O)cc1)NC(=O)[C@H](CCCN=C(N)N)NC(=O)[C@H](CCCN=C(N)N)NC(=O)[C@H](C)NC(=O)[C@H](Cc1ccccc1)NC(=O)[C@H](CCCN=C(N)N)NC(=O)CNC(=O)[C@H](C)NC(=O)CNC(=O)[C@H](CCCN=C(N)N)NC(=O)[C@@H](NC(=O)[C@H](Cc1ccccc1)NC(=O)[C@H](CCCN=C(N)N)NC(=O)[C@H](CCCN=C(N)N)NC(=O)[C@H](Cc1c[nH]c2ccccc12)NC(=O)[C@H](CCCN=C(N)N)NC(=O)[C@H](CO)NC(=O)[C@H](CCCN=C(N)N)NC(=O)[C@@H](N)[C@@H](C)O)[C@@H](C)CC)C(=O)N[C@@H](C)C(=O)O [TRSRWRRFIRGAGRFARRYGWRIA]

MIC [25]: 33.8 µM (≈ 25.5 µg/mL)
MIC [26]: ≥ 36.3 µM
Compound: NC(=O)[C@H](Cc1ccccc1)NC(=O)[C@H](Cc1ccccc1)NC(=O)[C@H](Cc1ccccc1)NC(=O)[C@H](Cc1ccccc1)NC(=O)[C@@H](N)Cc1ccccc1 [FFFFF]
